Patent US11279744B2, “Neuropeptide Y fragment capable of releasing hematopoietic stem cells into blood and treating osteoporosis” (Kyungpook National University Industry-Academic Cooperation …, priority 2017, dated 2022)
Entries after “also recorded” stand apart in the source; their conditions may differ. Non-standard residues stand in square brackets, D forms with d. No end group written: not given here.

Experiments:
[1] = test system: osteoclasts in bone marrow; assay: TRAP staining of osteoclasts in bone marrow of osteoporosis animal models; format: in vivo, mouse; conditions: OVX mice, 50 μg/kg i.p. twice a day for 4 weeks; compared to PBS
Procedure: To make an osteoporosis model, 10-18 12 weeks old female mice per group underwent ovarian ablation. A week later, 50 μg/kg of NPY(21-28), NPY D^25(21-28), NPY D^26(21-28), NPY D^25,26(21-28), Osteopep2, NPY and 100 μl of PBS(Gibco) were intraperitoneally administered twice a day for 4 weeks at 12 hour intervals. Alendronate (Sigma), used as a competitive drug, was intraperitoneally administered once a week for 4 weeks at a dose of 50 μg/kg. As a control group, only Sham model of osteoporosis was performed by subcutaneous dissection of female mouse. Mice were placed in experimental groups using the Block randomization method, and all mouse experiments were approved through the Kyungpook National University Institutional Animal Care and Use Committee.
The femurs were separated from the mice and fixed in 4% paraformaldehyde for 24 hours, and tissue was decalcified in 10% EDTA for 5 weeks. It was then dehydrated with a series of diluted alcohols, paraffinized, and prepared into […] paraffin sections.
For TRAP staining, sections were deparaffinized, stained with 1.33 mM Fast Red Violet LB Salt (Sigma-Aldrich) in 50 mM sodium acetate (pH 5.0) containing 225 μM Naphthol AS-MX phosphate (Sigma-Aldrich, St Louis, Mo., USA), 0.84% N, N-dimethylformamide (Sigma-Aldrich) and 50 mM sodium tartrate, and incubated for 30 minutes. After incubation, the sections were washed with distilled water and counterstained with 1% methyl green.
Histomorphometric analysis was performed using the OsteoMeasure program (Extensive interactive Bone Histomorphometry Analysis System).
After the last administration at 4 weeks of NPY (21-28), the femurs were separated from the mice and the number of osteoclasts in the bone marrow was measured by TRAP staining.
After the last administration at 4 weeks of NPY D^25(21-28), NPY D^26(21-28), and NPY D^25,26(21-28), the femurs were separated from the mice and the number of osteoclasts in the bone marrow was measured by TRAP staining.

[2] = test system: myelopoiesis progenitor cells in the blood; assay: Colony-forming unit (CFU) assay, progenitor cells in blood of osteoporosis animal models; format: in vivo, mouse; conditions: OVX mice, 50 μg/kg i.p. twice a day for 4 weeks, blood 1 hour after last dose
Procedure: To make an osteoporosis model, 10-18 12 weeks old female mice per group underwent ovarian ablation. A week later, 50 μg/kg of NPY(21-28), NPY D^25(21-28), NPY D^26(21-28), NPY D^25,26(21-28), Osteopep2, NPY and 100 μl of PBS(Gibco) were intraperitoneally administered twice a day for 4 weeks at 12 hour intervals. Alendronate (Sigma), used as a competitive drug, was intraperitoneally administered once a week for 4 weeks at a dose of 50 μg/kg. As a control group, only Sham model of osteoporosis was performed by subcutaneous dissection of female mouse. Mice were placed in experimental groups using the Block randomization method, and all mouse experiments were approved through the Kyungpook National University Institutional Animal Care and Use Committee. CFU analysis was performed to determine the number of bone marrow hematopoietic progenitor cells in the blood of mice. After anesthetizing the mouse first, 500 μl to 700 μl of blood were collected in a heparin tube by cardiac drawing, and then placed in ammonium chloride solution (Stem Cell Technologies, Inc. 1:10) and placed on ice for 15 minutes to remove red blood cells. The red blood cells were well shaken at intervals of 2 to 3 minutes and centrifuged at 1000 rpm for 7 minutes. The supernatant was removed and washed with IMDM (Gibco) supplied with 2% fetal bovine serum (FBS, Gibco). The washed cells (3×10^5 per mouse) were divided into three 35 mm dishes containing methylcellulose-based media (Methocult, Stem cell), and after the cells were incubated for two weeks, the number of colonies formed in the flask was counted. In order to investigate whether the NPY (21-28) of the present invention affects the blood release of myelopoiesis stem cells in the animal models of osteoporosis, the following experiments were carried out according to the methods of Examples 1-1, 1-3, 1-4, and 1-5. In order to make animal models of osteoporosis, 12 weeks old C57BL/6 female mice were subjected to ovarian ablation for 10 to 18 animals in each group. One week later, 50 μg/kg of NPY (21-28) and 100 μl of PBS (Gibco) were intraperitoneally administered twice a day for 4 weeks at 12 hour intervals. As a control group, mice that underwent only subcutaneous incisions in normal mice were used. Weight change was measured weekly, and bone marrow and blood were collected one hour after the last dose at 4 weeks, and the release of myelopoiesis progenitor and stem cells into blood was analyzed. The positive control group, NPY (21-36), Osteopep2 and full length NPY (50 μg/kg, intraperitoneally administered twice a day for 4 weeks) were used. Alendronate used as a competitive drug for osteoporosis treatment was intraperitoneally administered at a dose of 50 μg/kg for 4 weeks once a week. […]

Substance: NPY D^25,26(21-28): peptide in which both the fifth and sixth amino acids of NPY (21-28) are modified to D-form (YSAL[dR][dH]YI)
- number of TRAP positive osteoclasts in bone marrow (Number of osteoclast/Bone surface) [1]: reduced; also recorded: highest efficiency
- osteoclast surface (Osteoclast surface/Bone surface) [1]: reduced
- releasing myelopoiesis progenitor cells into blood (CFU assay) [2]: increases
- releasing myelopoiesis progenitor cells into blood (CFU assay) ([2]; listed as NPY D^25,26 (21-28)): highest efficiency; also recorded: even better than that of NPY (21-28)

Substance: NPY D^25(21-28): peptide in which arginine, the fifth amino acid of the amino acid sequence of NPY (21-28), is modified to D-type (YSAL[dR]HYI)
- number of TRAP positive osteoclasts in bone marrow (Number of osteoclast/Bone surface) [1]: reduced
- osteoclast surface (Osteoclast surface/Bone surface) [1]: reduced
- releasing myelopoiesis progenitor cells into blood (CFU assay) [2]: increases

Substance: YSALRHYI [NPY (21-28)]
- number of TRAP positive osteoclasts in bone marrow (Number of osteoclast/Bone surface) [1]: superior to Osteopep2 and NPY; also recorded: superior to the competitive drug Alendronate
- osteoclast surface (Osteoclast surface/Bone surface) [1]: superior to Osteopep2 and NPY; also recorded: superior to the competitive drug Alendronate
- releasing myelopoiesis progenitor cells into blood (CFU assay) [2]: increases; also recorded: superior to Osteopep2 and NPY
